Test results reported in US10640506B2, “Cyclobutyl substituted pyrrolopyridine and pyrrolopyrimidines derivatives as JAK inhibitors” (Incyte Corporation, priority 2010, dated 2020).

Legend:
[1] = target: human JAK1 (a.a. 837-1142) (Homo sapiens, UniProt P23458); test: In vitro JAK kinase assay (HTRF, phosphorylation of biotinylated peptide), JAK1; format: biochemical; settings: Table F; 1 mM ATP
Summary of the method: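 His-tagged human JAK1 catalytic domain (a.a. 837-1142), baculovirus/insect-cell expressed, phosphorylates a biotinylated peptide for 1 h at room temperature. Reaction stopped with EDTA; product detected by HTRF (SA-APC, Eu-Py20, 40 min binding). IC50 reported as ranges.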

[2] = target: T1, JAK2 (a.a. 828-1132) (Homo sapiens, UniProt O60674); test: In vitro JAK kinase assay (HTRF, phosphorylation of biotinylated peptide), JAK2; format: biochemical; settings: Table F; 1 mM ATP
T1 construct: JAK2 (a.a. 828-1132); His tag (N)
Summary of the method: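 His-tagged catalytic domains of human JAK1 (a.a. 837-1142) and JAK2 (a.a. 828-1132), baculovirus-expressed, phosphorylate a biotinylated peptide for 1 hour at room temperature. Stopped with EDTA; detected by HTRF using SA-APC and Eu-Py20 antibody after 40 min binding; values binned as ranges.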

Chain of human JAK1 (a.a. 837-1142) (P23458 849-1154): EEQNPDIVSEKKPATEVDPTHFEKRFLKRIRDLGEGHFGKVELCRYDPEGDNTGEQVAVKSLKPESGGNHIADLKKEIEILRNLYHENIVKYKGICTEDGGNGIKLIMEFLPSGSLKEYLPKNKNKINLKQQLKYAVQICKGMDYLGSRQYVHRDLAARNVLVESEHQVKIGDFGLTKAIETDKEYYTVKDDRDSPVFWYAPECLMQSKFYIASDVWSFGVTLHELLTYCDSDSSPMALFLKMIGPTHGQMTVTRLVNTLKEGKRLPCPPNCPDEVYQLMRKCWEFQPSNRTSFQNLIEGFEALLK
T1 sequence (O60674 828-1132): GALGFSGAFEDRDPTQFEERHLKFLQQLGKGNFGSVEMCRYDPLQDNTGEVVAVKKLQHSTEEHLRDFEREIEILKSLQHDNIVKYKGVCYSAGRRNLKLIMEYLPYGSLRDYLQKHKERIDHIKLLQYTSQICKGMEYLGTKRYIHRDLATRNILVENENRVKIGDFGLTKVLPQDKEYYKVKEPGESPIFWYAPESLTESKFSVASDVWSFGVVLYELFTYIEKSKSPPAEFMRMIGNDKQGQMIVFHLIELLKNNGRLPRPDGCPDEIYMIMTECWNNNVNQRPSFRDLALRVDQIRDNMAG

| Structure (SMILES) | IC50 [1] [nM] | IC50 [2] [nM] |
| --- | --- | --- |
| CC(C)OC(=O)N1CCN([C@H]2C[C@](CC#N)(n3cc(-c4ncnc5[nH]ccc45)cn3)C2)CC1 [Example 120, isopropyl 4-{trans-3-(cyanomethyl)-3-[4-(7H-pyrrolo[2,3-d]pyrimidin-4-yl)-1H-pyrazol-1-yl]cyclobutyl}piperazine-1-carboxylate] | < 10 | 25 to 100 |
| CC(C)(C)NCc1cc(OC2CCN([C@H]3C[C@](CC#N)(n4cc(-c5ncnc6[nH]ccc56)cn4)C3)CC2)nc(C(F)(F)F)c1 [Example 127, {trans-3-(4-{[4-[(tert-butylamino)methyl]-6-(trifluoromethyl)pyridin-2-yl]oxy}piperidin-1-yl)-1-[4-(7H-pyrrolo[2,3-d]pyrimidin-4-yl)-1H-pyrazol-1-yl]cyclobutyl}acetonitrile] | < 10 | 25 to 100 |
| CC(C)(C)NCc1cc(OC2CCN([C@H]3C[C@@](CC#N)(n4cc(-c5ncnc6[nH]ccc56)cn4)C3)CC2)nc(C(F)(F)F)c1 [Example 128, {cis-3-(4-{[4-[(tert-butylamino)methyl]-6-(trifluoromethyl)pyridin-2-yl]oxy}piperidin-1-yl)-1-[4-(7H-pyrrolo[2,3-d]pyrimidin-4-yl)-1H-pyrazol-1-yl]cyclobutyl}acetonitrile] | 25 to 100 | > 100 |
| N#CC[C@]1(n2cc(-c3ncnc4[nH]ccc34)cn2)C[C@H](N2CCC(Oc3cc(CN)cc(C(F)(F)F)n3)CC2)C1 [Example 129, {trans-3-(4-{[4-(aminomethyl)-6-(trifluoromethyl)pyridin-2-yl]oxy}piperidin-1-yl)-1-[4-(7H-pyrrolo[2,3-d]pyrimidin-4-yl)-1H-pyrazol-1-yl]cyclobutyl}acetonitrile] | < 10 | 25 to 100 |
| CN(C)Cc1cc(OC2CCN([C@H]3C[C@](CC#N)(n4cc(-c5ncnc6[nH]ccc56)cn4)C3)CC2)nc(C(F)(F)F)c1 [Example 130, {trans-3-(4-{[4-[(dimethylamino)methyl]-6-(trifluoromethyl)pyridin-2-yl]oxy}piperidin-1-yl)-1-[4-(7H-pyrrolo[2,3-d]pyrimidin-4-yl)-1H-pyrazol-1-yl]cyclobutyl}acetonitrile] | < 10 | > 100 |
| CNCc1cc(OC2CCN([C@H]3C[C@](CC#N)(n4cc(-c5ncnc6[nH]ccc56)cn4)C3)CC2)nc(C(F)(F)F)c1 [Example 132, {trans-3-(4-{[4-[(methylamino)methyl]-6-(trifluoromethyl)pyridin-2-yl]oxy}piperidin-1-yl)-1-[4-(7H-pyrrolo[2,3-d]pyrimidin-4-yl)-1H-pyrazol-1-yl]cyclobutyl}acetonitrile] | < 10 | 25 to 100 |
| CN(C)Cc1cc(C(=O)N2CCN([C@H]3C[C@@](CC#N)(n4cc(-c5ncnc6[nH]ccc56)cn4)C3)CC2)cc(C(F)(F)F)c1 [Example 135, {cis-3-{4-[3-[(dimethylamino)methyl]-5-(trifluoromethyl)benzoyl]piperazin-1-yl}-1-[4-(7H-pyrrolo[2,3-d]pyrimidin-4-yl)-1H-pyrazol-1-yl]cyclobutyl}acetonitrile] | 10 to 25 | > 100 |
| CN(C)Cc1cc(C#N)cc(C(=O)N2CCN([C@H]3C[C@](CC#N)(n4cc(-c5ncnc6[nH]ccc56)cn4)C3)CC2)c1 [Example 136, 3-[(4-{trans-3-(cyanomethyl)-3-[4-(7H-pyrrolo[2,3-d]pyrimidin-4-yl)-1H-pyrazol-1-yl]cyclobutyl}piperazin-1-yl)carbonyl]-5-[(dimethylamino)methyl]benzonitrile] | < 10 | 25 to 100 |
| CN(C)Cc1cc(C#N)cc(OC2CCN([C@H]3C[C@](CC#N)(n4cc(-c5ncnc6[nH]ccc56)cn4)C3)CC2)c1 [Example 137, 3-[(1-{trans-3-(cyanomethyl)-3-[4-(7H-pyrrolo[2,3-d]pyrimidin-4-yl)-1H-pyrazol-1-yl]cyclobutyl}piperidin-4-yl)oxy]-5-[(dimethylamino)methyl]benzonitrile] | 10 to 25 | > 100 |
| CN(C)Cc1cc(OC2CCN([C@H]3C[C@](CC#N)(n4cc(-c5ncnc6[nH]ccc56)cn4)C3)CC2)cc(C(F)(F)F)c1 [Example 138, {trans-3-{4-[3-[(Dimethylamino)methyl]-5-(trifluoromethyl)phenoxy]piperidin-1-yl}-1-[4-(7H-pyrrolo[2,3-d]pyrimidin-4-yl)-1H-pyrazol-1-yl]cyclobutyl}acetonitrile] | 10 to 25 | > 100 |
| CCN(CC)Cc1cc(OC2CCN([C@H]3C[C@](CC#N)(n4cc(-c5ncnc6[nH]ccc56)cn4)C3)CC2)cc(C(F)(F)F)c1 [Example 139, {trans-3-{4-[3-[(diethylamino)methyl]-5-(trifluoromethyl)phenoxy]piperidin-1-yl}-1-[4-(7H-pyrrolo[2,3-d]pyrimidin-4-yl)-1H-pyrazol-1-yl]cyclobutyl}acetonitrile] | < 10 | > 100 |
| CN(C)Cc1cc(OC2CCN([C@H]3C[C@](CC#N)(n4cc(-c5ncnc6[nH]ccc56)cn4)C3)CC2)cc(C(F)F)c1 [Example 140, {trans-3-(4-{3-(difluoromethyl)-5-[(dimethylamino)methyl]phenoxy}piperidin-1-yl)-1-[4-(7H-pyrrolo[2,3-d]pyrimidin-4-yl)-1H-pyrazol-1-yl]cyclobutyl}acetonitrile] | 10 to 25 | > 100 |
| CN(C)Cc1cc(Cl)nc(OC2CCN([C@H]3C[C@](CC#N)(n4cc(-c5ncnc6[nH]ccc56)cn4)C3)CC2)c1 [Example 141, {trans-3-[4-({6-chloro-4-[(dimethylamino)methyl]pyridin-2-yl}oxy)piperidin-1-yl]-1-[4-(7H-pyrrolo[2,3-d]pyrimidin-4-yl)-1H-pyrazol-1-yl]cyclobutyl}acetonitrile] | < 10 | < 10 |

Next, values leading:

| IC50 [1] [nM] | IC50 [2] [nM] | Structure (SMILES) |
| --- | --- | --- |
| < 10 | 25 to 100 | CCNCc1cc(OC2CCN([C@H]3C[C@](CC#N)(n4cc(-c5ncnc6[nH]ccc56)cn4)C3)CC2)nc(C(F)(F)F)c1 [Example 131, {trans-3-(4-{[4-[(ethylamino)methyl]-6-(trifluoromethyl)pyridin-2-yl]oxy}piperidin-1-yl)-1-[4-(7H-pyrrolo[2,3-d]pyrimidin-4-yl)-1H-pyrazol-1-yl]cyclobutyl}acetonitrile] |
| 10 to 25 | > 100 | CN(C)Cc1cc(OC2CCN([C@H]3C[C@](CC#N)(n4cc(-c5ncnc6[nH]ccc56)cn4)C3)CC2)nc(C(F)(F)F)n1 [Example 142, {trans-3-(4-{[6-[(dimethylamino)methyl]-2-(trifluoromethyl)pyrimidin-4-yl]oxy}piperidin-1-yl)-1-[4-(7H-pyrrolo[2,3-d]pyrimidin-4-yl)-1H-pyrazol-1-yl]cyclobutyl}acetonitrile] |
| 10 to 25 | 25 to 100 | CCNCc1cc(OC2CCN([C@H]3C[C@](CC#N)(n4cc(-c5ncnc6[nH]ccc56)cn4)C3)CC2)nc(C(F)(F)F)n1 [Example 143, {trans-3-(4-{[6-[(ethylamino)methyl]-2-(trifluoromethyl)pyrimidin-4-yl]oxy}piperidin-1-yl)-1-[4-(7H-pyrrolo[2,3-d]pyrimidin-4-yl)-1H-pyrazol-1-yl]cyclobutyl}acetonitrile] |
| 10 to 25 | > 100 | N#CC[C@]1(n2cc(-c3ncnc4[nH]ccc34)cn2)C[C@H](N2CCC(Oc3cc(CN4CC(O)C4)nc(C(F)(F)F)n3)CC2)C1 [Example 144, {trans-3-(4-{[6-[(3-hydroxyazetidin-1-yl)methyl]-2-(trifluoromethyl)pyrimidin-4-yl]oxy}piperidin-1-yl)-1-[4-(7H-pyrrolo[2,3-d]pyrimidin-4-yl)-1H-pyrazol-1-yl]cyclobutyl}acetonitrile] |
| 10 to 25 | > 100 | Cc1cc(OC2CCN([C@H]3C[C@](CC#N)(n4cc(-c5ncnc6[nH]ccc56)cn4)C3)CC2)nc(C(F)(F)F)n1 [Example 145, {trans-3-(4-{[6-methyl-2-(trifluoromethyl)pyrimidin-4-yl]oxy}piperidin-1-yl)-1-[4-(7H-pyrrolo[2,3-d]pyrimidin-4-yl)-1H-pyrazol-1-yl]cyclobutyl}acetonitrile] |
| 10 to 25 | > 100 | N#CC[C@]1(n2cc(-c3ncnc4[nH]ccc34)cn2)C[C@H](N2CCC(Oc3cc(CO)nc(C(F)(F)F)n3)CC2)C1 [Example 146, {trans-3-(4-{[6-(hydroxymethyl)-2-(trifluoromethyl)pyrimidin-4-yl]oxy}piperidin-1-yl)-1-[4-(7H-pyrrolo[2,3-d]pyrimidin-4-yl)-1H-pyrazol-1-yl]cyclobutyl}acetonitrile] |
| 10 to 25 | 25 to 100 | N#CC[C@]1(n2cc(-c3ncnc4[nH]ccc34)cn2)C[C@H](N2CCC(Oc3cc(CN)nc(C(F)(F)F)n3)CC2)C1 [Example 147, {trans-3-(4-{[6-(aminomethyl)-2-(trifluoromethyl)pyrimidin-4-yl]oxy}piperidin-1-yl)-1-[4-(7H-pyrrolo[2,3-d]pyrimidin-4-yl)-1H-pyrazol-1-yl]cyclobutyl}acetonitrile] |
| 10 to 25 | > 100 | N#CC[C@]1(n2cc(-c3ncnc4[nH]ccc34)cn2)C[C@H](N2CCC(Oc3cc(CN4CCCC4)nc(C(F)(F)F)n3)CC2)C1 [Example 148, {trans-3-(4-{[6-(pyrrolidin-1-ylmethyl)-2-(trifluoromethyl)pyrimidin-4-yl]oxy}piperidin-1-yl)-1-[4-(7H-pyrrolo[2,3-d]pyrimidin-4-yl)-1H-pyrazol-1-yl]cyclobutyl}acetonitrile] |
